Results reported in US20200405868A1, “GEL-FORMING POLYPEPTIDES” (priority 2018, published 2020).
Where a SMILES comes first, the peptide text is derived from it. [ ]: non-standard residue; d: D form. The star is where a group is joined. Palmitoyl = CCCCCCCCCCCCCCCC(=O)*; AEEA = NCCOCCOCC(=O)O

Legend:
[1] = Compound gel-forming ability in water (visual inspection, tube tapping assay, tilted tube assay); type: physicochemical; conditions: for gel formation at 11% w/w: 11% w/w in water; for gel formation at 20% w/w: 20% w/w in water; for gel formation in aqueous solution, 6% / propensity to form gels, chimeric or mutated polypeptides, 6%: 6% w/w;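 for all read-outs here: peptides mixed with de-ionized water at about 22-25 °C, judged after 20 min by eye plus tube tapping (10 taps, moves counted) and 90° tilt mobility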
[2] = target: T1, bradykinin receptor 2 (BDKRB2) (Homo sapiens, UniProt P30411); experiment: BDKRB2 arrestin assay (Discoverx), antagonistic; type: cell-based
T1 sequence (P30411 1-391): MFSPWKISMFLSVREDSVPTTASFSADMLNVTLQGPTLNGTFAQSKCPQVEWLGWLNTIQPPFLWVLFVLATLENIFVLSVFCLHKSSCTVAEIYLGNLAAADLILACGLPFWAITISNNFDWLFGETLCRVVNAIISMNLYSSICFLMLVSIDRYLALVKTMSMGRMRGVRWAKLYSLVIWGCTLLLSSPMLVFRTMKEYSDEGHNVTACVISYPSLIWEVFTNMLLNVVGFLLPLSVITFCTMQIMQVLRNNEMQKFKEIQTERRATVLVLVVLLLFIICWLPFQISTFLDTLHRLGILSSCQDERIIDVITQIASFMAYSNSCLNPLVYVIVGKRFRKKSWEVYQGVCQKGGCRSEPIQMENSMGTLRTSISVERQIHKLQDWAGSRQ
Procedure: For the Arrestin assays, PathHunter cell lines (Discoverx Inc.) were expanded from freezer stocks, and seeded in a total volume of 20 μL into white walled, 384-well microplates and incubated at 37 C for the appropriate time prior to testing. […] For antagonistic activity determination, cells were pre-incubated with antagonist followed by agonist challenge at the EC80 concentration. Intermediate dilution of sample stocks was performed to generate 5× sample in assay buffer, and 5 μL of 5× sample was added to cells and incubated at 37° C. or room temperature for 30 minutes. Vehicle concentration was 1%. Then, 5 μL of 6×EC80 agonist in assay buffer was added to the cells and incubated at 37 C or room temperature for 90 or 180 minutes.
Assay signal was generated through a single addition of 12.5 or 15 μL (50% v/v) of PathHunter Detection reagent cocktail, followed by an one hour incubation at room temperature. The microplates were read following signal generation with a PerkinElmer Envision™ instrument for chemiluminescent signal detection. The compound activity was analyzed using a CBIS data analysis suite (ChemInnovation, CA). […] For antagonistic activity assays, percentage inhibition was calculated using the following formula: % Inhibition=100%×(1−(mean RLU of test sample−mean RLU of vehicle control)/(mean RLU of EC80 control−mean RLU of vehicle control)).

CRH receptor 2 (CRHR2) = target: T2, CRH receptor 2 (CRHR2) (Homo sapiens, UniProt Q13324); experiment: CRHR2 cAMP assay (Discoverx), agonistic; type: cell-based
T2 sequence (Q13324 1-411): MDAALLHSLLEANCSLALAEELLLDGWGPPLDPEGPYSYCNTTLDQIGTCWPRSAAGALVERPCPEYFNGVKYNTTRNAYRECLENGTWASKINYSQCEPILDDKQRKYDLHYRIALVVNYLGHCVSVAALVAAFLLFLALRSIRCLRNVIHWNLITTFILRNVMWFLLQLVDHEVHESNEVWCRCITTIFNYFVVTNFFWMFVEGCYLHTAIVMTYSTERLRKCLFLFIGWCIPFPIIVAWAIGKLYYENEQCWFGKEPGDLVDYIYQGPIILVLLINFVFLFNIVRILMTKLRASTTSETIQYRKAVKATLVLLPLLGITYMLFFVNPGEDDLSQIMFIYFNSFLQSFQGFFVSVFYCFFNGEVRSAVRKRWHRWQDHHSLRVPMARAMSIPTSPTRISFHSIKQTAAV
Procedure: (§1) The agonistic activities toward MC1R, MC4R, CRHR2, PTHR1, and OPRK1 were assyed with an MC1R cAMP assay, an MC4R cAMP assay, a CRHR2 cAMP assay, a PTHR1 cAMP assay and an OPRK1 cAMP assay from Discoverx Inc. (Fremont, Calif.), respectively. The antagonistic activities toward bradykinin receptor 2 (BDKRB2) and GnRH receptor (GnRHR or LHRHR) were assayed with a BDKRB2 arrestin assay and a GnRHR calcium flux assay from Discoverx, respectively.
(§2) For the analysis of Gs-coupled cAMP production, cAMP Hunter cell lines were expanded from freezer stocks, and cells were seeded in a total volume of 20 μL into white walled, 384-well microplates and incubated at 37 C for the appropriate time prior to testing. The cAMP modulation was determined using the DiscoverX HitHunter cAMP XS+ assay. For agonistic activity determination, cells were incubated with sample to induce response. Media was aspirated from cells and replaced with 15 μL 2:1 HBSS/10 mM Hepes: cAMP XS+ Ab reagent. Intermediate dilution of sample stocks was performed to generate 4× sample in assay buffer, and 5 μL of 4× sample was added to cells and incubated at 37 C or room temperature for 30 or 60 minutes. Vehicle concentration was 1%. The compound activity was analyzed using a CBIS data analysis suite (ChemInnovation, CA). For Gs-coupled agonistic assays, percentage activity is calculated using the following formula: % Activity=100%×(mean RLU of test sample−mean RLU of vehicle control)/(mean RLU of MAX control−mean RLU of vehicle control).

PTH receptor 1 (PTHR1) = target: T3, PTH receptor 1 (PTHR1) (Homo sapiens, UniProt Q03431); experiment: PTHR1 cAMP assay (Discoverx), agonistic; type: cell-based
T3 sequence (Q03431 27-593): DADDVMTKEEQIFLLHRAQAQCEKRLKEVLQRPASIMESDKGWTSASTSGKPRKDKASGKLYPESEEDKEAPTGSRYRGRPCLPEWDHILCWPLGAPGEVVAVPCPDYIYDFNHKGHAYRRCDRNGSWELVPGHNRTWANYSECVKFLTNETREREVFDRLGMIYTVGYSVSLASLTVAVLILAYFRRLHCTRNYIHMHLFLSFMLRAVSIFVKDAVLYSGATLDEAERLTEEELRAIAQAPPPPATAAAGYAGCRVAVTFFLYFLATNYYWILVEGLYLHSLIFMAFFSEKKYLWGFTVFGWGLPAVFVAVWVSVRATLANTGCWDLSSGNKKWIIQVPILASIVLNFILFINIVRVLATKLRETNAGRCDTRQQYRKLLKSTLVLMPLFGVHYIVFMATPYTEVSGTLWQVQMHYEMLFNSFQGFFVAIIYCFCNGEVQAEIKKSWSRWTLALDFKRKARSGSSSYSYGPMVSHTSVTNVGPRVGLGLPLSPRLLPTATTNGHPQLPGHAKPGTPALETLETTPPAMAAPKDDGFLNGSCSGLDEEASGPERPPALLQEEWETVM
Procedure: as §1
as §2, with “Intermediate dilution of sample stocks was performed to generate 4× sample in assay buffer, and 5 μL of 4× sample was added to cells and incubated at 37 C or room temperature for 30 or 60 minutes. Vehicle concentration was 1%.” left out

| Compound | gel formation at 11% w/w [1] | gel formation at 20% w/w [1] | gel formation in aqueous solution, 11% ([1]; Table 3, 11% w/w) | gel formation in aqueous solution, 20% ([1]; Table 3, 20% w/w) | Max Activity % of positive control [2] | gel formation in aqueous solution, 6% ([1]; Table 3) | propensity to form gels, chimeric or mutated polypeptides, 6% ([1]; Table 5) | propensity to form gels, chimeric or mutated polypeptides, 11% ([1]; Table 5, 11% w/w) | Max Activity % of positive control (CRH receptor 2 (CRHR2)) | propensity to form gels, chimeric or mutated polypeptides, 20% ([1]; Table 5, 20% w/w) | Max Activity % of positive control (PTH receptor 1 (PTHR1)) | other results |
| --- | --- | --- | --- | --- | --- | --- | --- | --- | --- | --- | --- | --- |
| N=C(N)NCCC[C@@H](N)C(=O)N[C@@H](CCCNC(=N)N)C(=O)N1CCC[C@H]1C(=O)N1C[C@H](O)C[C@H]1C(=O)NCC(=O)N[C@@H](Cc1cccs1)C(=O)N[C@@H](CO)C(=O)N1Cc2ccccc2C[C@@H]1C(=O)N1[C@H](C(=O)N[C@@H](CCCNC(=N)N)C(=O)O)C[C@@H]2CCCC[C@@H]21 [SEQ ID NO:32, (D-Arg)-Arg-Pro-Hyp-Gly-Thi-Ser-(D-Tic)-Oic-Arg, reference compound] | does not form gel | does not form gel | AS/IS (AS/IS for aqueous solution or insoluble) | AS/IS (AS/IS for aqueous solution or insoluble) | 100 % of positive control | – | – | – | – | – | – | gel formation at 30% w/w ([1]; 30% w/w in water): does not form gel; Physical property at 11% w/w ([1]; Table 1, 11% w/w in aqueous solution, room temperature): AS/IS; gel formation in aqueous solution, 30% ([1]; Table 3, 30% w/w): AS/IS (AS/IS for aqueous solution or insoluble); propensity to form gels, wild-type counterparts, 11% ([1]; Table 5, 11% w/w): AS/IS; propensity to form gels, wild-type counterparts, 20% ([1]; Table 5, 20% w/w): AS/IS |
| CCCCCCCCCCCCCCCC(=O)N[C@@H](CCCCN)C(=O)N[C@@H](CO)C(=O)N[C@@H](Cc1ccc(O)cc1)C(=O)N[C@@H](CO)C(=O)N[C@@H](CC(C)C)C(=O)N[C@@H](CC(=O)O)C(=O)N[C@H](C(=O)N1CCC[C@H]1C(=O)N[C@H](C(=O)N[C@@H](CC(N)=O)C(=O)N[C@H](C(=O)N[C@@H](CCSC)C(=O)N[C@@H](CC(N)=O)C(=O)N[C@@H](CC(C)C)C(=O)N[C@@H](CC(C)C)C(=O)N[C@@H](Cc1ccccc1)C(=O)N[C@@H](CC(N)=O)C(=O)N[C@H](C(=O)N[C@@H](C)C(=O)N[C@@H](CCCCN)C(=O)N[C@@H](C)C(=O)N[C@@H](CCCCN)C(=O)N[C@@H](CC(N)=O)C(=O)N[C@@H](CC(C)C)C(=O)N[C@@H](CCCNC(=N)N)C(=O)N[C@@H](C)C(=O)N[C@@H](CCC(N)=O)C(=O)N[C@@H](C)C(=O)N[C@@H](C)C(=O)N[C@@H](C)C(=O)N[C@@H](CC(N)=O)C(=O)N[C@@H](C)C(=O)N[C@@H](Cc1c[nH]cn1)C(=O)N[C@@H](CC(C)C)C(=O)N[C@@H](CCSC)C(=O)N[C@@H](C)C(=O)N[C@@H](CCC(N)=O)C(=O)N[C@H](C(N)=O)[C@@H](C)CC)[C@@H](C)CC)[C@@H](C)CC)[C@@H](C)O)C(C)C [SEQ ID NO:231] (Palmitoyl-KSYSLDVPTNIMNLLFNIAKAKNLRAQAAANAHLMAQI-NH2) | – | – | SS (SS for semisolid gel) | – | – | SS (SS for semisolid gel) | SS (An ability to form semisolid gel is represented by an SS) | SS (An ability to form semisolid gel is represented by an SS) | 78 % of positive control | – | – | EC50 (CRH receptor 2 (CRHR2)): 0.0057 µM |
| CCCCCCCCCCCCCCCC(=O)N[C@@H](Cc1c[nH]cn1)C(=O)N[C@@H](CO)C(=O)N[C@@H](Cc1ccc(O)cc1)C(=O)N[C@@H](CO)C(=O)N[C@@H](CCC(=O)O)C(=O)N[C@H](C(=O)N[C@@H](CCC(N)=O)C(=O)N[C@@H](CC(C)C)C(=O)N[C@@H](CCSC)C(=O)N[C@@H](Cc1c[nH]cn1)C(=O)N[C@@H](CC(N)=O)C(=O)N[C@@H](CC(C)C)C(=O)NCC(=O)N[C@@H](CCCCN)C(=O)N[C@@H](Cc1c[nH]cn1)C(=O)N[C@@H](CC(C)C)C(=O)N[C@@H](CC(N)=O)C(=O)N[C@@H](CO)C(=O)N[C@@H](CCSC)C(=O)N[C@@H](CCC(=O)O)C(=O)N[C@@H](CCCNC(=N)N)C(=O)N[C@H](C(=O)N[C@@H](CCC(=O)O)C(=O)N[C@@H](Cc1c[nH]c2ccccc12)C(=O)N[C@@H](CC(C)C)C(=O)N[C@@H](CCCNC(=N)N)C(=O)N[C@@H](CCCCN)C(=O)N[C@@H](CCCCN)C(=O)N[C@@H](CC(C)C)C(=O)N[C@@H](CCC(N)=O)C(=O)N[C@@H](CC(=O)O)C(=O)N[C@H](C(=O)N[C@@H](Cc1c[nH]cn1)C(=O)N[C@@H](CC(N)=O)C(=O)N[C@@H](Cc1ccccc1)C(=O)O)C(C)C)C(C)C)[C@@H](C)CC [SEQ ID NO:232] (Palmitoyl-HSYSEIQLMHNLGKHLNSMERVEWLRKKLQDVHNF-OH; C-terminus assumed) | liquid gel | semisolid gel | – | SS (SS for semisolid gel) | – | – | – | – | – | SS (An ability to form semisolid gel is represented by an SS) | 59 % of positive control | – |
| CCCCCCCCCCCCCCCC(=O)N[C@@H](Cc1c[nH]cn1)C(=O)N[C@@H](CO)C(=O)N[C@@H](Cc1ccc(O)cc1)C(=O)N[C@H](CCCNC(=N)N)C(=O)N[C@@H](CCCNC(=N)N)C(=O)N1CCC[C@H]1C(=O)N1C[C@H](O)C[C@H]1C(=O)NCC(=O)N[C@@H](Cc1cccs1)C(=O)N[C@@H](CO)C(=O)N1Cc2ccccc2C[C@@H]1C(=O)N1[C@H](C(=O)N[C@@H](CCCNC(=N)N)C(N)=O)C[C@@H]2CCCC[C@@H]21 [SEQ ID NO:234, Pal-HSY-(D-Arg)-Arg-Pro-Hyp-Gly-Thi-Ser-(D-Tic)-Oic-Arg-NH2] | – | semisolid gel | AS/IS (AS/IS for aqueous solution or insoluble) | SS (SS for semisolid gel) | 112 % of positive control | AS/IS (AS/IS for aqueous solution or insoluble) | AS/IS | AS/IS | – | SS (An ability to form semisolid gel is represented by an SS) | – | IC50 ([2]; bradykinin-stimulated): 0.0533 µM |
| PTH (1-34) [reference compound] | – | – | – | – | – | – | – | – | – | – | 101 % of positive control | – |
| Palmitoyl-SSPHSY[AEEA]IVLSLDVPIGLLQILLEQARARAAREQATTNARILARVGHC-NH2 [SEQ ID NO:230] | – | semisolid or liquid gel | AS/IS (AS/IS for aqueous solution or insoluble) | SS (SS for semisolid gel) | – | – | – | AS/IS | 100 % of positive control | SS (An ability to form semisolid gel is represented by an SS) | – | – |
